Reference: patent publication US10807992B2, “Single enantiomer antiparasitic compounds” (priority 2017, dated 2020)
Where two headings read alike, the source gives them in different places.

Test: Dog PK study of C1 (S) enantiomer, single oral dose, plasma and whole blood by chiral LC-MS/MS
Format: in vivo, beagle dogs
Conditions: for AUC(0-t): read-out: NCA AUC0-last; for AUC(0-inf): read-out: NCA AUC0-∞
Protocol: This study assessed the in vivo pharmacokinetic (PK) behavior of a single oral dose of the C1 (S) enantiomer in beagle dogs (Charles River study# 20104466). Solutions of C1 (S) enantiomer were dosed by oral gavage (10mg/kg) to a group of dogs (n=3). Blood samples were collected pre-dose and at 0.25, 0.5, 1, 2, 4, and 8 hours following dosing on Day 1. Blood samples were also collected on Days1, 2, 3, 5, 7, 10, 14, 17, 21, 25, 28, 32, 35, 39, 43, and 45. A portion of each whole blood sample was processed to plasma. Test article concentrations in plasma and whole blood were determined using liquid chromatography tandem mass spectrometry (LC-MS/MS).
Calibration curves were constructed by spiking racemic 1-[6-[5-(3,5-dichloro-4-fluoro-phenyl)-5-(trifluoromethyl)-4H-isothiazol-3-yl]spiro[1H-isobenzofuran-3,3′-azetidine]-1′-yl]-3,3,3-trifluoro-propan-1-one into aliquots of blank K2EDTA beagle plasma or whole blood (Bioreclamation, Westbury, N.Y.) at the following nominal concentrations: 5, 10, 20, 50, 100, 200, 500, 1000, 2000, 5000, and 10000 ng/mL. Quality control samples (QCs) were prepared in the same manner at the following concentrations: 15, 30, 150, 800, 1600, 4000, and 8000 ng/mL.
Samples (double blanks, blank+IS, blank+drug, standards, QC samples, and study samples) were extracted using a protein precipitation procedure. A 50 μL aliquot of plasma or blood was transferred into a deep well 96-well plate. To the sample aliquot, 250 μL of an internal standard (IS) solution for plasma or 300 μL for blood was added. The internal standard solution contained Afoxolaner at 50 ng/mL in methanol. For double blanks and blank+drug, neat methanol instead of IS was added. The 96-well plate was capped, shaken for ten minutes, and centrifuged at 5000 relative centrifugal force (RCF) for 10 minutes at 15° C. A 150-200 μL aliquot of the resulting supernatant of each sample was transferred to a clean, 96-well microtiter plate. The microtiter plate was capped and subjected to LC-MS/MS analysis.
The LC-MS/MS system consisted of a Leap autosampler, an Agilent 1100 series liquid chromatography pump, and a SciexAPI4000 mass spectrometer operated in triple quadrupole mode. A ChiralPak IA column (4.6×150mm, 5μm particle, Supplier Daicel PN 80324)at room temperature was used with water as mobile phase A and neat acetonitrile as mobile phase B. The LC gradient, MS parameters, and gas parameters are shown in the tables 2-4, respectively.
The mass spectrometer (MS) was operated in negative Turbo IonSpray™ mode with Multiple Reaction Monitoring (MRM).
Following LC-MS/MS analysis, peak area ratios were calculated (analyte peak area divided by internal standard peak area). Standard curves were created by generating least squares fitting plots of peak area ratio versus nominal concentration. Sample concentrations were calculated from the results of the least squares fits.
Cmax and Tmax are the observed maximum drug concentration and the time at which the maximum concentration occurs, respectively. Area under the curve (AUC) was calculated using the linear trapezoid method. To calculate half-lives (t1/2), a least squares regression was performed on a log concentration (C) versus time (t) plot (semi-log plot) to obtain the slope, k. The t1/2 is equal to 0.693/k. The t1/2 was calculated using data points in the elimination phase. For oral PK, Cl/F=Dose/AUC.
In this report, PK calculations were normalized to the measured dose solution concentrations. Note that in all figures and tables below, the nominal dose is listed.

[1] = dog, plasma, Beagle, oral 10 mg/kg, read-out: Plasma Concentration
[2] = dog, whole blood, Beagle, oral 10 mg/kg, read-out: Blood Concentration
[3] = dog, plasma, Beagle, oral gavage 10 mg/kg
[4] = dog, whole blood, Beagle, oral gavage 10 mg/kg
[5] = plasma, Beagle, oral gavage 10 mg/kg, 10 mg/kg
[6] = same dose level, beagle vs. mongrels

In the case of `O=C(CC(F)(F)F)N1CC2(C1)OCc1cc(C3=NS[C@@](c4cc(Cl)c(F)c(Cl)c4)(C(F)(F)F)C3)ccc12` [C1 (S) enantiomer, (S)-1-[6-[5-(3,5-dichloro-4-fluoro-phenyl)-5-(trifluoromethyl)-4H-isothiazol-3-yl]spiro[1H-isobenzofuran-3,3′-azetidine]-1′-yl]-3,3,3-trifluoro-propan-1-one], the “Blood Concentration” value (1080 hr, Beagle, oral 10 mg/kg) is reported as “BQL ^b”, the “concentration in plasma relative to blood concentration” value (after 240 hours) is reported as “about twice the blood concentration” and the “concentrations in blood and plasma compared” value (at 48 hours) is reported as “similar”. For the same compound, the “average half-life compared with the racemate” value (beagle PK study vs. racemate oral efficacy studies in mongrels) was “shorter than that of the racemate”, the Tmax (beagle, dog, plasma, po, 10 mg/kg, plasma, Beagle, oral gavage 10 mg/kg, read-out: Tmax) was 2 h and the CL/F (beagle, dog, plasma, po, 10 mg/kg, oral gavage 10 mg/kg) was 0.833 mL/min/kg. The Tmax (beagle, dog, whole blood, po, 10 mg/kg, whole blood, Beagle, oral gavage 10 mg/kg, read-out: Tmax) was 1.7 h, the CL/F (beagle, dog, whole blood, po, 10 mg/kg, oral gavage 10 mg/kg) was 1.12 mL/min/kg and the “bioconversion to the C1 (R) enantiomer in vivo” value (chiral HPLC chromatograms of all study samples, dog) was “No bioconversion was observed”. The concentration at 1080 hr (dog, in vivo, 1080 hr, Beagle, oral 10 mg/kg) was 15.7 ± 6.3 ng/mL, the concentration at 0.25 hr [1] was 291 ± 57 ng/mL and the concentration at 0.5 hr [1] was 1170 ± 250 ng/mL. For the same compound, the concentration at 1 hr [1] was 1920 ± 330 ng/mL, the concentration at 2 hr [1] was 2260 ± 170 ng/mL and the concentration at 4 hr [1] was 2010 ± 360 ng/mL. For the same compound, the concentration at 8 hr [1] was 1110 ± 70 ng/mL, the concentration at 24 hr [1] was 664 ± 112 ng/mL and the concentration at 48 hr [1] was 567 ± 95 ng/mL. The concentration at 72 hr [1] was 552 ± 65 ng/mL, the concentration at 120 hr [1] was 393 ± 67 ng/mL and the concentration at 168 hr [1] was 298 ± 39 ng/mL. It also gave a concentration at 240 hr [1] of 270 ± 19 ng/mL, a concentration at 336 hr [1] of 219 ± 24 ng/mL and a concentration at 408 hr [1] of 135 ± 12 ng/mL. For the same compound, the concentration at 504 hr [1] was 103 ± 15 ng/mL, the concentration at 600 hr [1] was 80.4 ± 11.3 ng/mL and the concentration at 672 hr [1] was 55.6 ± 12.2 ng/mL. The concentration at 768 hr [1] was 47 ± 11.9 ng/mL, the concentration at 840 hr [1] was 37.4 ± 8.2 ng/mL and the concentration at 936 hr [1] was 24.8 ± 6.4 ng/mL. It also gave a concentration at 1032 hr [1] of 18.8 ± 5.5 ng/mL, a concentration at 0.25 hr [2] of 412 ± 89 ng/mL and a concentration at 0.5 hr [2] of 1660 ± 380 ng/mL. For the same compound, the concentration at 1 hr [2] was 3210 ± 230 ng/mL, the concentration at 2 hr [2] was 3560 ± 570 ng/mL and the concentration at 4 hr [2] was 2990 ± 340 ng/mL. It also gave a concentration at 8 hr [2] of 1220 ± 170 ng/mL, a concentration at 24 hr [2] of 708 ± 162 ng/mL and a concentration at 48 hr [2] of 572 ± 128 ng/mL. For the same compound, the concentration at 72 hr [2] was 428 ± 71 ng/mL, the concentration at 120 hr [2] was 292 ± 56 ng/mL and the concentration at 168 hr [2] was 245 ± 47 ng/mL. The concentration at 240 hr [2] was 136 ± 20 ng/mL, the concentration at 336 hr [2] was 100 ± 6 ng/mL and the concentration at 408 hr [2] was 75.8 ± 11.2 ng/mL. For the same compound, the concentration at 504 hr [2] was 57.3 ± 8.5 ng/mL, the concentration at 600 hr [2] was 41.2 ± 3.7 ng/mL and the concentration at 672 hr [2] was 30.5 ± 5.1 ng/mL. For the same compound, the concentration at 768 hr [2] was 21.5 ± 4.2 ng/mL, the concentration at 840 hr [2] was 17.4 ± 4.8 ng/mL and the concentration at 936 hr [2] was 14.3 ± 3.4 ng/mL. The concentration at 1032 hr [2] was 13.8 ng/mL, the half-life [3] was 205 h and the Cmax (dog, plasma, Beagle, oral gavage 10 mg/kg, read-out: Cmax) was 2260 ng/mL. For the same compound, the AUC(0-t) [3] was 191 µg·h/mL, the AUC(0-inf) [3] was 196 µg·h/mL and the half-life [4] was 209 h. It also gave a Cmax (dog, whole blood, Beagle, oral gavage 10 mg/kg, read-out: Cmax) of 3650 ng/mL, an AUC(0-t) [4] of 144 ± 11 µg·h/mL and an AUC(0-inf) [4] of 148 µg·h/mL. The “blood concentrations compared with plasma concentrations” value (first few hours post-dose) was “significantly higher than the corresponding plasma concentrations”, the “affinity to red blood cells (RBC)” value (initial phase post-dose) was “higher initial affinity to red blood cells (RBC)” and the tlast (plasma, Beagle, oral gavage 10 mg/kg) was 1080 h. The Cl/F [5] was 0.84 ± 0.0467 mL/min/kg, the Cmax [5] was 2260 ± 170 ng/mL and the “NCA AUC0-last” value [5] was 191 ± 11 µg·h/mL. For the same compound, the “AUC compared with the racemate” value [6] was “lower compared to those of the racemate”, the “Cmax compared with the racemate” value [6] was “lower compared to those of the racemate” and the Tmax (whole blood, Beagle, oral gavage 10 mg/kg, 10 mg/kg) was 1.67 ± 0.58 h.
